Measurements: PMC8078777 (PLoS Pathogens, 2021)
“And” between values parts separate entries of the source, which are not always exact repeats. Equal entries are not always repeated.

Columns and labels:
NLPPp [1] = biological target: T1, NLPPp (Phytophthora nicotianae, UniProt Q9AT28); assay: Surface plasmon resonance binding to immobilized NLPPp; design: species or system Phytophthora parasitica; settings: for Kd: SPR, steady-state affinity model, 50 mM MES, 150 mM NaCl, 5% DMSO, pH 5.8
T1 construct: made in house; host or cells: Pichia pastoris
T1 sequence (Q9AT28 20-237): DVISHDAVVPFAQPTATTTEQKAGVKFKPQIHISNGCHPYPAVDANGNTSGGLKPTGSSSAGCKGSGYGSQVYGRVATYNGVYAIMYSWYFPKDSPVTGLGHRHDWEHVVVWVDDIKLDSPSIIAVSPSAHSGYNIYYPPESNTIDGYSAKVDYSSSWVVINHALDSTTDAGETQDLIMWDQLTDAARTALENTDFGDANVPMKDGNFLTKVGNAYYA

NLPPp [2] = biological target: T1, NLPPp; assay: Tobacco leaf infiltration assay, NLPPp-induced necrosis; type: in vivo, Phytophthora parasitica; settings: 400 nM NLPPp with different concentrations of compound, tobacco leaves, 24 h
NLPPp [3] = biological target: T1, NLPPp; design: method as in doi:10.1016/j.pmpp.2010.06.003; settings: cited from earlier work
BcNEP1 = test system: BcNEP1; design: method as in doi:10.1016/j.pmpp.2010.06.003; settings: cited from earlier work

Compound | SPR binding to NLPPp (in words) (NLPPp [1]) | effect on NLPPp-induced necrosis (NLPPp [2]) | Kd (NLPPp [1]) | effect against NLPPp (NLPPp [3]) | effect on necrosis-inducing action of BcNEP1 (BcNEP1)
Cc1ccc2occ(C3N[C@H](C(=O)O)CS3)c(=O)c2c1 (stereo partly drawn) [6C3, (4R)-2-(6-methyl-4-oxo-4H-chromen-3-yl)thiazolidine-4-carboxylic acid] | nonspecific binding | inhibited |  |  | 
Cc1oc([C@@H](O)[C@H](O)[C@H](O)CO)cc1C(=O)O [6E11, 2-methyl-5-((1S,2R,3R)-1,2,3,4-tetrahydroxybutyl)furan-3-carboxylic acid, reference compound] |  | did not affect NLPPp cytotoxicity |  |  | 
COc1ccc(Nc2ccccc2C(=O)O)cc1 [6G7, 2-((4-methoxyphenyl)amino)benzoic acid] |  | inhibited | 71.9 ± 19.1 µM |  | 
O=C(Cc1c[nH]c2ccccc12)Nc1ccccc1CCOC(=O)Cc1c[nH]c2ccccc12 [7C8, 2-(2-(1H-indol-3-yl)acetamido)phenethyl 2-(1H-indol-3-yl)acetate] |  | inhibited | 40.5 µM and ~50 µM |  | 
O=C(N/N=C/c1ccc(O)c(O)c1)c1cc2ccccc2cc1O [dynasore] |  |  |  | ineffective | reduced
